We go through 17 compounds from patent US5594024A, “Centrally actig substituted phenylazacycloalkanes” (priority 1995, dated 1997).

One test has as its target T1, 5-HT1A (Rattus norvegicus, UniProt P19327).
T1 construct: the whole brain with the exception of the brainstem and cerebellum was rapidly removed; from tissue
T1 sequence (P19327 1-422): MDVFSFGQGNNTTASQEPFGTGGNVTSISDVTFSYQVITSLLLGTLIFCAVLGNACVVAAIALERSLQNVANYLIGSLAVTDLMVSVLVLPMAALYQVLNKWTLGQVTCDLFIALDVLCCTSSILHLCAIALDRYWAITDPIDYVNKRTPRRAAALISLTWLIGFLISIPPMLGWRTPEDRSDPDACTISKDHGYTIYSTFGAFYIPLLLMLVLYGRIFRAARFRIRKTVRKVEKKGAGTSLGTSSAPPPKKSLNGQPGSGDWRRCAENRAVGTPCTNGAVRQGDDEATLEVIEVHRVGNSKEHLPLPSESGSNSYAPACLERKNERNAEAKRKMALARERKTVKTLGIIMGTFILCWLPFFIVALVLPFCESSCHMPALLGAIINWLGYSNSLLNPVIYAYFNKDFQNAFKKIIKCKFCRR
The experiment in a line: 5-HT1A radioligand binding ([3H]-8-OH-DPAT). Also on record: species or system rat (male Sprague-Dawley). On the procedure:
^b Serotonin 5HT1A ([^3 H]-8OH-DPAT, agonist) rat cortex.
5-HT1A radioligand binding. Male Sprague-Dawley rats (160-225 g) were killed by decapitation and the whole brain with the exception of the brainstem and cerebellum was rapidly removed, weighed and chilled in ice-cold 0.9% NaCl. Each brain was homogenized (Ultra-Turrax, 20 s) in 10 mL ice-cold 50 mM Tris buffer (pH 8.0 at 25° C.) containing 120 mM NaCl, 4 mM CaCl2 and 4 mM MgCl2 and centrifuged at 20,000 g's at 4° C. for 10 minutes. Pellets were resuspended in 10 mL fresh buffer and preincubated for 10 minutes in a 37° C. waterbath and then recentrifuged. Final pellets were homogenized in 100 volumes (w/v) of Tris buffer (as described above) containing 10 μM pargyline. The incubation tubes were kept on ice in triplicates and received 100 μL drug solution in water (or water for total binding) and 1000 μL membrane suspension (corresponds to 10 mg original tissue). The binding experiment was initiated by addition of 100 μL of (3H)-8-OH-DPAT (specific activity 143-158 Ci/mmol) in ascorbic acid (the final incubation concentration was 1 nM (3H)-8-OH-DPAT in 0.1% ascorbic acid). After incubation for 15 minutes at 37° C. the reaction was terminated by separation of the free radioligand from bound by rapid vacuum filtration using a cell harvester equipment (O. M. Teknik, Denmark). The tubes were rinsed with 4 mL and the filters (Whatman GF/F 25 mm) were washed twice with 4 mL ice-cold 0.9% NaCl.
The radioactivity of the filters was measured in a liquid scintillation counter (efficiency 41%) in 5 mL Picofluor®. Specific binding (70-75% of total binding) was defined as the radioactivity displaced by 10 μM 5-HT. IC50 values were calculated by semi-log plot and linear regression analysis.

Another test addresses T2, D2 receptors (Rattus norvegicus, UniProt P61169).
T2 construct: Preparation of rat striatal membranes for (3H)-spiperone; from tissue; host or cells: rat striatum (striatal membranes)
The experiment in a line: D2 antagonist binding ([3H]-spiperone), rat striatum. On the procedure:
D2 antagonist binding. Preparation of rat striatal membranes for (3H)-spiperone (specific activity 21-24 Ci/mmol) binding was carried out in a similar manner as described for D1-binding, Hyttel et al., J. Neural. Transm., 68, 171 (1987).
IC50 values were calculated by semi-log plot and linear regression analysis.

Another test relates to habituated rats. The experiment in a line: Locomotor activity and behavior in habituated rats. Type of test: in vivo, rat (male Sprague-Dawley). As to conditions: 100 μmol/kg sc, habituated rats; for response vs control in vivo at 100 µmol/kg: Rattus norvegicus, 1 h, read-out: Motor Activity. On the procedure:
(§1) Footnotes Table 3. The rats were habituated to the motility meters 60 min
prior to the activity session.
(§2) Injection volumes were 5 mL/kg.
Locomotor activity was measured in rats which were habituated 60 minutes to the activity meters before drug injection. The activity was measured for the subsequent 60 minutes and expressed as % of controls (means ±SEM, n=4).

Test [1] has as its system DA receptor. The experiment in a line: DA metabolism (DOPAC, HVA levels) in habituated rats. Type of test: in vivo, rat (male Sprague-Dawley). To be noted: for response vs control in vivo at 100 µmol/kg: Rattus norvegicus, 1 h. As to the method:
as §1
The rats were immediately killed after the activity session, striata
and limbic levels of DOPAC and 5HIAA were measured by means of HPLCEC. *p
In the experiments with habituated rats no NSD was administered and the animals were killed one hour after drug administration. […] The levels were expressed as % of controls (DOPAC and 5-HIAA see Table 3). The in vivo brain microdialysis experiments were performed in conscious rats as described by Waters et al., Eur. J. Pharm., 187, 425-34 (1990).
as §2
After the activity session the rats were killed and the brain levels of HVA and DOPAC were measured (data are expressed as means ±SEM).

For another test, the system named is non-pretreated rats. Kind of test: Locomotor activity and gross behavior in non-habituated (non-pretreated) rats. To be noted: non-pretreated rats; for Motor Act.: 30 min.
The test system of test [2] is DA receptor. Kind of test: DOPA accumulation (DA synthesis rate) in non-pretreated rats after NSD 1015.
Method: injected with NSD 1015 (100 mg/kg, i.p.) and then killed 30 min later.
In-vivo determination of rat brain monoamine metabolites and tyrosine and tryptophan hydroxylation (biochemically monitored DA and 5-HT receptor agonist or antagonist activity).
The compounds under evaluation were tested biochemically for central DA and 5-HT receptor (pre- and/or postsynaptic) stimulating and/or blocking activity. The concept of this biochemical screening method is that a DA or 5-HT receptor agonist will stimulate the receptor and through regulatory negative feed-back systems induce a decline in tyrosine or tryptophan hydroxylating activity, respectively, and a subsequent reduction in the synthesis rate of DA and 5-HT in the presynaptic neuron. […] The biochemical experiments and the determinations of Dopa and 5-HTP by means of HPLC with electrochemical detection were performed. The antagonistic effects were seen as increases in the synthesis rate (n=4), as a result of the positive feed-back upregulation of synthesis. The effects on Dopa and 5-HTP accumulation are expressed as % of controls, which were: DOPA limbic system=447±23 ng/g and DOPA striatum=1045±47ng/g, 5-HTP limbic region 241±2 ng/g (Table 2).
Animals used in the biochemical and motor activity experiments were male rats of the Sprague-Dawley strain (ALAB, Sollentuna, Sweden), weighing 200-300 g. The rats were kept 5 per cage with free access to water and food (except for the starved animals for the experiments with per oral administration, who were only allowed water the last 18 hours before testing), at least one week from arrival until used in the experiments.
All substances to be tested were dissolved in saline immediately before use, occasionally with the addition of a few drops of glacial acetic acid and/or moderate heating in order to obtain complete dissolution. Injection volumes were 5 mL/kg.
Analysis of variance (ANOVA) followed by Fischer's test was used for the statistical calculations. P values less than 0.05 were regarded statistically significant.
DOPA accumulation (DA synthesis rate) in non-pretreated rats (Table 2). After the locomotor activity session (see Table 2, above) the rats were injected with the decarboxylase inhibitor NSD 1015 (100 mg/kg, sc) and killed 30 minutes later. The DOPA accumulation in the DA -rich limbic and striatal and the NE-rich cortical (mainly hemispheres) brain areas were expressed as % of saline treated controls.
DOPA accumulation, time course after s.c. and p.o. administration (Table 2). […] NSD 1015 (100 mg/kg, sc) was injected 30 minutes before death. The data are expressed as % of saline treated controls.
The test system of another test is 5-HT receptor. Kind of test: 5-HTP accumulation (5-HT synthesis rate) in non-pretreated rats after NSD 1015. Type of test: in vivo, rat (male Sprague-Dawley). On the procedure:
observations are commented to the right. After the session the rats were
accumulation in the NErich cortical regions and 5HTP in the limbic
as §2

Setting [3] is: [3H]-8-OH-DPAT, rat cortex, read-out: in vitro binding IC50, 5HT1A.
[4] abbreviates: read-out: in vitro binding IC50, D2 -spip, [3H]-spiperone, rat striatum.
Where [5] appears, read: [3H]-spiperone, rat striatum, read-out: in vitro binding IC50, D2 -spip.
[6] abbreviates: 100 μmol/kg sc, habituated rats, read-out: DOPAC limbic.
Setting [7] is: 100 μmol/kg sc, habituated rats, read-out: DOPAC striatum.
Setting [8] is: 100 μmol/kg sc, habituated rats.

Where two headings read alike, the source gives them in different places.

T2 sequence (P61169 whole entry): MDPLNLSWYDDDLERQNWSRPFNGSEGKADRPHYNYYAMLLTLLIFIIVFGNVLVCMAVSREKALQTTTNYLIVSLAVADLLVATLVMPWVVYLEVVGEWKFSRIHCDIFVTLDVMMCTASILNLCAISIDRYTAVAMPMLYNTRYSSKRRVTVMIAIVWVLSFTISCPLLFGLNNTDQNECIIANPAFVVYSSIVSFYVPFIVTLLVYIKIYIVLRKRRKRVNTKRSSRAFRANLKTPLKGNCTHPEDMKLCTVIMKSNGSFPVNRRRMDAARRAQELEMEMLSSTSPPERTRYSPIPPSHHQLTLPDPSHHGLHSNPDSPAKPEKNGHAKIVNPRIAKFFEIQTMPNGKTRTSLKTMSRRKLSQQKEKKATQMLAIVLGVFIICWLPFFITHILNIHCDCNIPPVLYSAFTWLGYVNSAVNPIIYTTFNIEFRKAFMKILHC

The IC50 is the concentration needed to halve the response being measured. On to `CCCCN1CCC[C@@H](c2cccc(C#N)c2)C1` [Compound S-36, S-3-(3-Cyanophenyl-N-n-butyl)piperidine], for which the half-inhibitory concentration (IC50) was determined as 5.6 µM at 5-HT1A (setting [3]) and 3.7 µM at D2 receptors (setting [4]).

As to `CCCN1CCC[C@@H](c2cccc(C(N)=O)c2)C1` [S-(-)-29, S-(-)-3-(3-Carbamoylphenyl-N-n-propyl)piperidine], the values for the IC50 on 5-HT1A (setting [3]) and on D2 receptors (setting [5]) were 6.3 µM and 75 µM, respectively.

Take `N#Cc1cccc([C@@H]2CCCN(CCc3cccs3)C2)c1` [Compound S-40, S-3-((3-Cyanophenyl)-N-(2-thiopheneethyl))piperidine]: in the test on habituated rats, the Behavioral observations result is on record as “Activation”. For the same compound, the response vs control in vivo at 100 µmol/kg was found to be 500 ± 92% in the test with habituated rats (60 min), 149 ± 17% in the test with DA receptor [1] (setting [6]) and 201 ± 4% in the test with DA receptor [1] (setting [7]). Further, the IC50 on 5-HT1A (setting [3]) was found to be 0.4 µM; at D2 receptors (setting [5]) it was 0.89 µM.

As for `C=Cc1cccc([C@@H]2CCCN(CCC)C2)c1` [(-)-R-41], in the test on non-pretreated rats (100 sc), the “Gross Behavioral Observations” value was “No change” and the “Motor Act.” value is recorded as 125 ± 13 % of saline controls. Also, in the test with DA receptor [2] (100 sc), the “DOPA acc Cortex” value is on record as 121 ± 29 % of saline controls and the “DOPA acc Stratium” value was 171 ± 15 % of saline controls. In addition, in the test with 5-HT receptor (100 sc), the “5-HTP acc Limbic Region” value is 65 ± 2 % of saline controls.

As for `CCCN1CCC[C@@H](c2cccc(OC)c2)C1` [S-i, S-3-(3-Methoxyphenyl-N-n-propyl)piperidine], the IC50 at 5-HT1A (setting [3]) was 4.5 µM; on D2 receptors (setting [5]), 21 µM.

Turning to `O=S(=O)(Oc1cccc([C@@H]2CCCN(CCc3ccccc3)C2)c1)C(F)(F)F` [Compound S-18], the figures for the IC50 at 5-HT1A (setting [3]) and at D2 receptors were 0.23 µM and 0.24 µM, respectively.

For the compound `CN1CCC[C@@H](c2cccc(C#N)c2)C1` [S-(+)-32, S-(+)-3-(3-Cyanophenyl-N-methyl)piperidine], in the test on non-pretreated rats (25 sc), the “Gross Behavioral Observations” value is listed as “No change”. The “Motor Act.” value is 128 ± 27 % of saline controls with non-pretreated rats (25 sc) and 79 ± 2 % of saline controls in the test with non-pretreated rats (100 sc). Moreover, the results for the “DOPA acc Cortex” value with DA receptor [2] (25 sc) and in the test on DA receptor [2] (100 sc) were 91 ± 5 % of saline controls and 109 ± 12 % of saline controls, respectively. In addition, the “DOPA acc Stratium” value in the test with DA receptor [2] (25 sc) is recorded as 132 ± 9 % of saline controls; in the test with DA receptor [2] (100 sc), 215 ± 6 % of saline controls. Besides, the response vs control in vivo at 100 µmol/kg turned out to be 110 ± 6% in the test on DA receptor [1] (sc, read-out: DOPAC limbic) and 120 ± 5% with DA receptor [1] (sc, read-out: DOPAC striatum). In addition, the IC50 is 14 µM on 5-HT1A (setting [3]) and 50 µM on D2 receptors (setting [5]). Besides, the “5-HTP acc Limbic Region” value with 5-HT receptor (25 sc) was 98 ± 7 % of saline controls; in the test with 5-HT receptor (100 sc), 78 ± 2 % of saline controls.

As for `C=CCN1CCC[C@@H](c2cccc(C#N)c2)C1` [Compound S-37, S-3-(3-Cyanophenyl-N-allyl)piperidine], the response vs control in vivo at 100 µmol/kg in the test on DA receptor [1] (sc, read-out: DOPAC limbic) came out at 205 ± 17%. In addition, the concentration for half-maximal inhibition (IC50) was determined as 12 µM at 5-HT1A (setting [3]) and 8.2 µM at D2 receptors (setting [4]).

For the compound `CCCN1CCCC(c2cccc(C#N)c2)C1` (racemic) [(+)-S-34], the response vs control in vivo at 100 µmol/kg was determined as 207 ± 6% in the test on DA receptor [1] (sc, read-out: DOPAC limbic) and 291 ± 16% in the test on DA receptor [1] (sc, read-out: DOPAC striatum).

For `N#Cc1cccc([C@@H]2CCCN(CC3CC3)C2)c1` [Compound S-38, S-3-(3-Cyanophenyl-N-cyclopropylmethyl)piperidine], the response vs control in vivo at 100 µmol/kg in the test with DA receptor [1] (sc, read-out: DOPAC limbic) came out at 221 ± 8%. At 5-HT1A (setting [3]), the half-maximal inhibitory concentration (IC50) turned out to be 7.9 µM.

Consider `N#Cc1cccc([C@@H]2CCCN(CCc3ccccc3)C2)c1` [Compound S-39, S-3-((3-Cyanophenyl)-N-(2-phenylethyl))piperidine], for which the Behavioral observations entry in the test on habituated rats was “Activation”. Moreover, the response vs control in vivo at 100 µmol/kg was 511 ± 69% in the test on habituated rats (60 min), 169 ± 16% in the test with DA receptor [1] (setting [6]) and 231 ± 14% with DA receptor [1] (setting [7]). The values for the IC50 on 5-HT1A (setting [3]) and on D2 receptors (setting [5]) were 0.15 µM and 0.63 µM, respectively.

As to `CCCN1CCCC(c2ccc(OS(=O)(=O)C(F)(F)F)cc2)C1` (racemic) [Racemic-20, 3-((4-(Trifluoromethyl)sulfonyl)oxyphenyl-N-n-propyl)piperidine], the half-maximal inhibitory concentration (IC50) on 5-HT1A (setting [3]) is 14 µM; at D2 receptors (setting [5]) it was 71 µM.

In the case of `CCCN1CCCC(c2ccccc2OS(=O)(=O)C(F)(F)F)C1` (racemic) [Racemic-19, 3-((2-(Trifluoromethyl)sulfonyl)oxyphenyl-N-n-propyl)piperidine], in the test with habituated rats, the Behavioral observations entry was “No activation”. For the same compound, in the test with habituated rats (60 min), the response vs control in vivo at 100 µmol/kg came to 101 ± 14%. Also, the IC50 at 5-HT1A (setting [3]) was found to be 1.4 µM.

As to `N#Cc1cccc([C@@H]2CCCNC2)c1` [Compound S-31, S-3-(3-Cyanophenyl)piperidine], in the test on habituated rats, the Behavioral observations entry is “Activation”. In addition, the “Motor Activity” value with habituated rats (60 min) is listed as 431 ± 80 % of saline treated controls. Also, in the test with DA receptor [1] (setting [8]), the DOPAC limbic is 153 ± 1% and the DOPAC striatum is 167 ± 8 % of saline treated controls. This compound also had a concentration for half-maximal inhibition (IC50) on 5-HT1A of 10 µM. Besides, the concentration for half-maximal inhibition (IC50) on D2 receptors (setting [5]) amounted to 16 µM.

Consider `CC(C)N1CCC[C@@H](c2cccc(C#N)c2)C1` [Compound S-35, S-3-(3-Cyanophenyl-N-iso-propyl)piperidine], for which the Behavioral observations result with habituated rats was “Activation”. Besides, in the test on DA receptor [1] (sc, read-out: DOPAC striatum), the response vs control in vivo at 100 µmol/kg amounted to 251 ± 18%. Further, the IC50 on 5-HT1A (setting [3]) was found to be 16 µM; at D2 receptors (setting [4]), 4.3 µM.

Take `CCCN1CCC(c2cccc(OS(=O)(=O)C(F)(F)F)c2)C1` (racemic) [Racemic-21, 3-((3-(Trifluoromethyl)sulfonyl)oxyphenyl-N-n-propyl)pyrrolidine]: in the test on habituated rats, the Behavioral observations entry is listed as “No activation”. For the same compound, the response vs control in vivo at 100 µmol/kg in the test on habituated rats (60 min) is 93 ± 18%. The 50% inhibitory concentration (IC50) on 5-HT1A (setting [3]) amounted to 3.2 µM; on D2 receptors (setting [5]) it was 4 µM.

On to `CCCN1CCC[C@@H](c2cccc(C(=O)OC)c2)C1` [Compound S-25, S-3-(3-(Methoxycarbonyl)phenyl-N-n-propyl)piperidine], for which the results for the half-inhibitory concentration (IC50) on 5-HT1A (setting [3]) and on D2 receptors (setting [5]) were 2 µM and 16 µM, respectively.
